The values that follow come from PMC8055690, “Flavonoids increase melanin production and reduce proliferation, migration and invasion of melanoma cells by blocking endolysosomal/melanosomal TPC2” (Scientific Reports, 2021).

The target of experiment [1] is T1, two-pore channel 2 (hTPC2) (Homo sapiens, UniProt Q8NHX9).
T1 construct: gene TPCN2; hTPC2-YFP stably expressed in HEK293 cells
Nature of the experiment: endolysosomal patch-clamp, block of PI([…])P2-evoked current. The experiment is classed as biochemical. (In patch-clamp work, channel activity is measured electrically.)

The target in experiment [2] is T1, two-pore channel 2 (hTPC2). Nature of the experiment: endolysosomal patch-clamp, single concentration […]. The format is cell-based.

T1 sequence (Q8NHX9 whole entry): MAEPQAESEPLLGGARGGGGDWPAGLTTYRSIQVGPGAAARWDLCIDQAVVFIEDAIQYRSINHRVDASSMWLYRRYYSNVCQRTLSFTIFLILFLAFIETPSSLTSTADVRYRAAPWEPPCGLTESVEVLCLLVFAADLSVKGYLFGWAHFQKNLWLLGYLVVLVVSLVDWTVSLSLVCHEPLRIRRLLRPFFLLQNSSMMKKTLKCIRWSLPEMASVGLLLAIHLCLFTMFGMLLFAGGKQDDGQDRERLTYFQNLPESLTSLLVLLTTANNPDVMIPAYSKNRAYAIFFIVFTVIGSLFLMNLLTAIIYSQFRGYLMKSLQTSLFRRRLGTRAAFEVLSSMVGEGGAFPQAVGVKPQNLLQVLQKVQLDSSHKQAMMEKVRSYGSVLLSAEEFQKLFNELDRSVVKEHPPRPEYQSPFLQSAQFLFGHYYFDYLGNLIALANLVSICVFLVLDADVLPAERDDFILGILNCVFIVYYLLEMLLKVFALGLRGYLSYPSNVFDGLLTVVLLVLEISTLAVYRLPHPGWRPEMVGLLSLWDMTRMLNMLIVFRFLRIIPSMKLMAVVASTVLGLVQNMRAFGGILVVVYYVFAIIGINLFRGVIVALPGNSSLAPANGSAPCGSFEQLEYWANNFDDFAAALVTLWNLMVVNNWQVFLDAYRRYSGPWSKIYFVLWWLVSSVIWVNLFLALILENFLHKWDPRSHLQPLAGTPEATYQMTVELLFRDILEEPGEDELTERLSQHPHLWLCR

For orientation: IC50 means the concentration that gives 50% inhibition. Read a high IC50 as a need for much substance. In experiment [1], `COc1ccc(-c2coc3cc(O)cc(O)c3c2=O)cc1O` [MT-8, pratensein] showed an IC50 of 2.6 ± 0.3 µM. The same measure, in the same setting: for `O=C1C[C@@H](c2ccc(O)cc2)Oc2cc(O)cc(O)c21` [MT-16, naringenin] the value was 74 ± 9 µM. As to `COc1ccc(-c2coc3cc(O)cc(O)c3c2=O)cc1` [TR-9], the “endolysosomal patch-clamp, single concentration 10 μM” value in experiment [2] was “TR-9 and TR-12 which showed variable effects on melanin generation also proved to be less efficacious inhibitors of hTPC2”. The same measure, in the same setting: for `O=C1C[C@@H](c2ccccc2)Oc2cc(O)cc(O)c21` [TR-12] the value was “TR-9 and TR-12 which showed variable effects on melanin generation also proved to be less efficacious inhibitors of hTPC2”. Turning to `COc1ccc([C@@H]2COc3c(ccc(O)c3OC)C2)c(OC)c1O` [UM-9, duartin], the IC50 in experiment [1] was 9.5 ± 2.8 µM.
